Test results reported in publication PMC10124120 (European journal of medicinal chemistry, 2023).
Values belong to the compound of their own block, whether it stands above or below them.

Tests used:
[1] = target: T1, SLC26A4 (Homo sapiens, UniProt O43511); assay: YFP-based selectivity assay, SLC26A4; format: cell-based; conditions: for inhibition at 10 µM: read-out: % Inhibition SLC26A4
T1 sequence (O43511 1-780): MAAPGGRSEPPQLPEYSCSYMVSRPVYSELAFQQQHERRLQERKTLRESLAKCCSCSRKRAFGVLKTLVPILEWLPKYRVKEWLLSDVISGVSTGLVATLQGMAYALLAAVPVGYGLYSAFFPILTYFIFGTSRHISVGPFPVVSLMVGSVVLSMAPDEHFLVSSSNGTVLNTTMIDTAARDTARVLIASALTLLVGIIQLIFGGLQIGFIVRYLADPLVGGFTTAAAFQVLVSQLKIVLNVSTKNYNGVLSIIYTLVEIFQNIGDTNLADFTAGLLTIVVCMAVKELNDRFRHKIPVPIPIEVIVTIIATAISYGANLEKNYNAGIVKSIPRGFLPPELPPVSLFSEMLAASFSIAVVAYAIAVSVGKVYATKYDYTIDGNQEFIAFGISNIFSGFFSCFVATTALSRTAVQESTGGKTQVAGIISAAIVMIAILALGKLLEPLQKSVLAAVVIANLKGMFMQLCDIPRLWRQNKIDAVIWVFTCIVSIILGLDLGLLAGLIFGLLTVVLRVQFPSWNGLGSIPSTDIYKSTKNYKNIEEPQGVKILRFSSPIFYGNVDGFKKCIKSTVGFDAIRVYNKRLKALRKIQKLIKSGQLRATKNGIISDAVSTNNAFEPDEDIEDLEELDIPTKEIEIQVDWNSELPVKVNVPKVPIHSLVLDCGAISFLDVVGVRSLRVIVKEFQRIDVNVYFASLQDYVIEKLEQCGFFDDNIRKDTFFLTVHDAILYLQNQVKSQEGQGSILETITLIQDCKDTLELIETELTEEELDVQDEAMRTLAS

[2] = system: TMEM16A; assay: YFP-based selectivity assay, TMEM16A; format: cell-based; conditions: 10 μM, mean ± S.E.M., n = 6–8
[3] = system: loperamide-induced constipation; assay: Loperamide-induced model of constipation in mice; format: in vivo, CD1 mice
[4] = target: T2, SLC26A3 (Mus musculus, UniProt Q9WVC8); assay: Kinetic studies of inhibitor action; format: cell-based, murine; conditions: from kinetics of inhibition onset and washout
T2 sequence (Q9WVC8 1-757): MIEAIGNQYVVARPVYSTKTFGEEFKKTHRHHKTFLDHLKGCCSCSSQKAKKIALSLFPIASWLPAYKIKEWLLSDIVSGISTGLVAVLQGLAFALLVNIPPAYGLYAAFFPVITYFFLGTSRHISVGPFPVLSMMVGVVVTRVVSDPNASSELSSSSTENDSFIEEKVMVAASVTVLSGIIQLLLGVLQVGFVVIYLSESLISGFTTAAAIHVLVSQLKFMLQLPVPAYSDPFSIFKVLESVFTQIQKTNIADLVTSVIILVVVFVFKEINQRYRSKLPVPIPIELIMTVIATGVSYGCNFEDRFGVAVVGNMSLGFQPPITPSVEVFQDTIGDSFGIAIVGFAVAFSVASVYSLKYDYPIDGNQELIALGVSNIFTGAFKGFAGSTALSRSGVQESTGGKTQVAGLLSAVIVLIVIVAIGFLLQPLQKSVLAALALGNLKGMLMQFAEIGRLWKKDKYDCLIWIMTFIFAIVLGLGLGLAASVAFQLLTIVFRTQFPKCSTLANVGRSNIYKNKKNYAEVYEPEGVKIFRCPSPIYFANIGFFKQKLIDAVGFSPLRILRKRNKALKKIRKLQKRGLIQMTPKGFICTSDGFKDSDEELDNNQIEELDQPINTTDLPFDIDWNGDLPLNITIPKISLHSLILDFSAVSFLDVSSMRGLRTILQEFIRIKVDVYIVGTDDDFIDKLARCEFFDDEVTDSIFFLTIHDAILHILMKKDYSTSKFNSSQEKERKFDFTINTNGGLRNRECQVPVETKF

[5] = system: loperamide-induced constipation; conditions: mouse model of constipation produced by loperamide; cited from earlier work
[6] = system: hyperoxaluria and oxalate nephropathy; conditions: mice orally loaded with oxalate; cited from earlier work
[7] = system: absorption of fluid and oxalate from the loop lumen; conditions: closed colonic loops in mice; cited from earlier work
[8] = loperamide-treated mice (0.3 mg/kg ip), 10 mg/kg oral gavage, vs vehicle
[9] = loperamide 0.3 mg/kg intraperitoneal

inhibition at 10 µM [1]: -14 ± 19%
SMILES: O=C(Nc1ccccc1C(=O)O)c1ccc2c(c1)C(=O)N(c1ccc(Cl)cc1)C2=O [Compound 1a]

SMILES: Cc1cc(C)cc(N(C)S(=O)(=O)c2nnc(NC(=O)COc3ccc(C)c(C)c3)s2)c1 [Compound 2a]
% Inhibition TMEM16A [2]: > 80%

site of action [4]: Extracellular
inhibition at 10 µM [1]: -13 ± 23%
SMILES: O=c1cc(COc2ccccc2Cl)nc2scc(-c3ccccc3)n12 [Compound 3a, 7-(2-chloro-phenoxymethyl)-3-phenyl-thiazolo [3,2-a]pyrimidin-5-one]
number of pellets [3, 8]: significantly increased
stool weight [3, 8]: significantly increased

site of action [4]: Extracellular
inhibition at 10 µM [1]: -13 ± 21%
SMILES: Cc1ccccc1COc1ccc2oc(-c3ccccc3)c(C(=O)O)c2c1 [Compound 4a]

activity against SLC26A4 (in words) [1]: active
SMILES: COC(=O)c1c(C)oc2ccc(OC(=O)COCc3ccccc3)cc12 [Compound 4h]

site of action [4]: intracellular
SMILES: Cc1c(CC(=O)O)c(=O)oc2c(C)c(OCc3cccc(I)c3)ccc12 [DRAinh-A270, [7-(3-iodobenzyloxy)-4,8-dimethylcoumarin]-3-acetic acid]
improving stool output and hydration [5]: effective
preventing hyperoxaluria and oxalate nephropathy [6]: effective
absorption of fluid and oxalate from the loop lumen [7]: inhibited

SMILES: CN(C)C(=O)C(CCN1CCC(O)(c2ccc(Cl)cc2)CC1)(c1ccccc1)c1ccccc1 [Loperamide, loperamide, reference compound]
reduced pellet number compared to control mice [3, 9]: > 90%
reduced stool weight compared to control mice [3, 9]: > 90%
